Source: patent US20100113406A1, “USE OF GLUCOCORTICOIDS FOR TREATMENT OF CONGESTIVE HEART FAILURE” (priority 2007, published 2010)
Entries after “also recorded” stand apart in the source; their conditions may differ.

Assays:
[1] = Pharmacokinetic study in normal Wistar rats (IPC vs IV infusion, corticosterone levels by HPLC); format: in vivo, Wistar rat; conditions: local (intrapericardial) administration versus systemic (IV) administration of the same amount of drug; 4 weeks infusion; FIG. 2
Procedure: (§1) Normal Wistar rats were used for this Example. Animals were housed at the animal facilities of the University of Maastricht with a 12-hour light/dark cycle and had free access to standard rat chow and tap-water. Experiments were performed according to institutional guidelines and conformed to the Guide for the Care and Use of Laboratory Animals published by the US National Institutes of Health (NIH Publication No. 85-23, revised 1996).
The rats underwent a surgical procedure to install pericardial and intravenous catheters and minipumps. Construction of the pericardial catheters and the procedure to install the catheter into the pericardial space were conducted as described by Hermans, which has been discussed above.
Briefly, the pericardial catheters consisted of silicone tubing (internal diameter: 0.51 mm; external diameter 0.94 mm, Degania Silicone, Degania Bet, Israel), which, by assembling its endings with a polyolefin shrinking sleeve (Farnell Compounds, Maarssen, the Netherlands), was shaped as a loop (length appr. 2 cm, width appr. 1 cm). Silicone glue was applied in the middle of the loop, to create two separate chambers (one used for fluid injection, the second closed, i.e. connected to a closed ending). The fluid infusion chamber was provided with holes by use of a 25-gauge perforator. […]

[2] = test system: spontaneous hypertensive heart failure (SHHF) rats; assay: Left ventricular pressures, contractility, relaxation, arterial pressure and heart rate in SHHF rat model of CHF; format: in vivo
Procedure: as §1, with “Forty to forty-two week old male lean spontaneous hypertensive heart failure (SHHF)” for “Normal Wistar”, “rats (originally obtained from Charles River, Boston, USA)” for “rats”, “used.” for “used for this Example.”
The rats underwent a surgical procedure to install pericardial and intravenous catheters and minipumps according to the procedure of Example 1.
Animals were randomly assigned to treatment groups (n=9 per group). Total treatment time was 4 weeks for all animals. The groups were as follows: • (1) corticosterone high dose IPC (60 micrograms/day) • (2) corticosterone low dose IPC (6 micrograms/day) • (3) corticosterone high dose IV (60 micrograms/day) • (4) corticosterone low dose IV (6 micrograms/day) • (5) vehicle
Where IPC—intrapericardial dosing, and IV=intravenous dosing.
During treatment, Group 5 (vehicle) rats were continuously infused with vehicle (40% polyethylene glycol in water; 60 μl/day) via both catheters. Experimental groups obtained continuous infusions as follows: • Group (1)—a high dose (60 ug/day) of corticosterone hemisuccinate intrapericardially and vehicle intravenously; • Group (2)—a low dose (6 ug/day) of corticosterone hemisuccinate intrapericardially and vehicle intravenously; • Group (3)—a high dose (60 ug/day) of corticosterone hemisuccinate intravenously and vehicle intrapericardially; and • Group (4)—a low dose (6 ug/day) of corticosterone hemisuccinate intravenously and vehicle intrapericardially. • Corticosterone hemisuccinate was purchased from Sigma (St Louis, Mo.)
Left ventricular pressures, contractility and relaxation were evaluated at the end of the study as described in B J Janssen et al., “Effects of anesthetics on systemic hemodynamics in mice.” Am J Physiol Heart Circ Physiol 287:H1618-1624 (2004). For this purpose rats were anaesthetized with pentobarbital (50 mg/kg i.p., Sigma). A high-fidelity catheter tip micromanometer (Mikro-tip 1.4F; SPR-671, Millar Instruments, Houston, Tex., USA) was inserted into the left ventricular cavity through the right carotid artery. Before the tip was inserted into the left ventricle, mean arterial pressures and heart rates were briefly recorded in the carotid artery. Left ventricular pressure was measured and sampled at a rate of 2 kHz under an I.V. ramp infusion of dobutamine up to 5 ng/gBW/min (Sigma) using a microinjection pump (model 200 Series, KD Scientific, Boston, Mass., USA). Maximal positive (+dp/dt/p) and negative (−dp/dt/p) pressure development were determined. At the end of the experiment blood and organs were harvested, weighed and rapidly processed and frozen for future analyses.

[3] = test system: spontaneous hypertensive heart failure (SHHF) rats; assay: Left ventricular collagen by Picro Sirius Red staining in SHHF rats; format: in vivo, rat; conditions: 6 or 60 micrograms/day IPC or IV, 4 weeks, FIG. 12
Procedure: as §1, with “Forty to forty-two week old male lean spontaneous hypertensive heart failure (SHHF)” for “Normal Wistar”, “rats (originally obtained from Charles River, Boston, USA)” for “rats”, “used.” for “used for this Example.”
(§2) Animals were randomly assigned to treatment groups (n=9 per group). Total treatment time was 4 weeks for all animals. […]
Collagen volume fraction of each section was determined using a computer image analyzing system (Leica Q-Win). Interstitial collagen density of heart sections was evaluated in the left ventricle (LV) subepicardial myocardium regions. Ten fields from each region (magnification ×20) were randomly selected for analyses and the area stained was calculated as percentage of the total area within a field.
Perivascular collagen was expressed as ratio of the area of the collagen surrounding the vessel divided to the area of the coronary arteries media in order to correct for differences in vessel size (magnification ×20 or ×40). We calculated an average value for interstitial and perivascular fibrosis or each animal. […]

[4] = test system: spontaneous hypertensive heart failure (SHHF) rats; assay: Transthoracic echocardiography in SHHF rats; format: in vivo, rat; conditions: treatment end versus treatment start, FIG. 4
Procedure: as §1, with “Forty to forty-two week old male lean spontaneous hypertensive heart failure (SHHF)” for “Normal Wistar”, “rats (originally obtained from Charles River, Boston, USA)” for “rats”, “used.” for “used for this Example.”
as §2
At the start and end of the treatment, transthoracic echocardiography was performed under isoflurane anesthesia in part of the rats (5-7 per group) using the SONOS 5500 echocardiographic system equipped with a 15-MHz linear-array transducer (Philips Medical Systems Corp., Netherlands). […] The 2-dimensional parasternal long- and short-axis view of the left ventricle and the parasternal short axis M-mode tracings were recorded.
Measurements and calculations performed are the following: percent LV fractional shortening (FS) was calculated as follows: […], where LVIDd and LVIDs are end-diastolic and end-systolic left ventricle internal dimensions, respectively. […]

[5] = test system: collagens I and III and BNP mRNA; assay: Left ventricular gene expression levels of collagens I and III and BNP (real-time PCR) in SHHF rats; format: in vivo; conditions: SHHF rat left ventricle, 4 weeks treatment; FIG. 13
Procedure: Left ventricular gene expression levels of collagens I and III and BNP were determined as follows. mRNA expression analyses were performed as follows:
Heart samples (i.e. basal side of the hearts) were shock frozen in liquid nitrogen for RNA. Total RNA from the LV was isolated using the Ultraspec II kit (Bioteckx), according to the instructions of the manufacturer. After integrity checking and determining RNA concentrations with the nanodrop procedure, the RNA concentrations were adjusted to 100 ng/μl For first strand cDNA synthesis, 100 ng heat denatured RNA and 200 pmol random hexamer primers (Pharmacia, Uppsala Sweden) were transferred to a Ready-To-Go first strand bead (Pharmacia, Uppsala Sweden) tube and the volume adjusted to 33 μl.
The reaction (1 hour at 37° C.) was stopped by heat inactivating (2 minutes at 94° C.) the transcriptase and samples were cooled to 4° C. For conducting the real-time PCR, […] of the cDNA templates (100× diluted) were added to SYBR green master mix (Eurogentec) and primers (15 μM final concentration each) yielding a total volume of […], following the instructions of the Eurogentec.
PCR-primers (Sigma Genosys) were selected based on published primers/cDNA sequences and had the following sequences (5′→3′): […]
yielding products with fragment lengths of 253, 147 and 86 base pairs for PGK 1 (phosphoglycerate kinase 1), BNP (brain natriuretic peptide) and collagens I and -III respectively.
Samples were denatured and incubated for 40 cycles at 60° C. (120 seconds; annealing and synthesis) and 95° C. (15 seconds), during which fluorescence was continuously monitored (Biorad thermocycler).
Based on the linear part of the curves, initial gene concentrations were derived by comparing signals with standard curves. Validity of the procedure was checked by constructing melting curves for every sample.
Calculated gene expression levels were standardized for the house keeping gene PGK1 and were normalized versus RNA obtained from untreated control animals. Data are therefore expressed as arbitrary units (means±SEM).

corticosterone concentration in rat heart tissue [1]: higher concentration
Compound: C[C@]12C[C@H](O)[C@H]3[C@@H](CCC4=CC(=O)CC[C@@]43C)[C@@H]1CC[C@@H]2C(=O)CO [corticosterone]
cardiac filling rate ([2]; 6 or 60 micrograms/day IPC or IV, 4 weeks): improved
left ventricular end diastolic pressure ([2]; 6 or 60 micrograms/day IPC or IV, 4 weeks, FIG. 8): improved; also recorded: positively affects
left ventricular contractility ([2]; 6 or 60 micrograms/day IPC or IV, 4 weeks, FIG. 10): improved; also recorded: positively affects
left ventricular relaxation ([2]; 6 or 60 micrograms/day IPC or IV, 4 weeks, FIG. 11): positively affects
heart rate ([2]; right carotid artery, 4 weeks treatment, FIG. 5): no differences between treatments; also recorded: not affecting
mean arterial pressure (MAP) / blood pressure ([2]; right carotid artery, 4 weeks treatment, FIG. 6): no differences between treatments; also recorded: not affecting
left ventricular epicardial collagen area [3]: improved; also recorded: positively affects
echocardiographic examinations (left ventricular dimensions or performance parameters) [4]: no differences between treatments
mRNA expression of B-type natriuretic peptide (BNP) [5]: reduces
mRNA expression of Type I collagen [5]: reduces
mRNA expression of Type III collagen [5]: reduces
